Article PMC11845761, “Intestinal human carboxylesterase 2 (CES2) expression rescues drug metabolism and most metabolic syndrome phenotypes in global Ces2 cluster knockout mice” (Acta Pharmacologica Sinica, 2024)
Where two headings read alike, the source gives them in different places.

Columns and labels:
[1] = Plasma pharmacokinetics of vinorelbine and deacetylvinorelbine after oral vinorelbine in CES2-modified mice; assay type: in vivo, mouse; conditions: mouse, plasma, oral vinorelbine 10 mg/kg, plasma; for AUC(0-t): male, po, 10 mg/kg, read-out: AUC0-4h; for Cmax: read-out: Cmax; for Tmax: read-out: Tmax
Protocol: (§1) For capecitabine 2-h experiments, 6–7 female mice received oral capecitabine (500 mg/kg, 10 μL/g), and tail vein blood samples were collected at 0.125, 0.25, 0.5 and 1 h after drug administration. For the vinorelbine 4-h experiment, 6-7 male mice received vinorelbine intravenously (10 mg/kg, 5 μL/g) or orally (10 mg/kg, 10 μL/g) using a blunt-ended needle. Tail vein blood samples were collected at 0.125, 0.25, 0.5, 1 and 2 h after drug administration. […] At the last time point in each experiment (2 or 4 h), mice were anesthetized with 5% isoflurane and blood was collected by cardiac puncture. […] Plasma was isolated from the blood by centrifugation at 9000 × g for 6 min at 4 °C, and the plasma fraction was collected and stored at −30 °C until analysis.
(§2) Concentrations of capecitabine (and its metabolites) and vinorelbine (and its metabolite) in mouse plasma samples and organ homogenates were determined using two independent validated high-performance liquid chromatography-tandem mass spectrometry assays.
(§3) Pharmacokinetic parameters were calculated by non-compartmental methods using the PK solver software. […] Differences were considered statistically significant when P < 0.05. All data are presented as mean ± SD.

[2] = Tissue concentrations of vinorelbine and deacetylvinorelbine 4 h after oral vinorelbine in CES2-modified mice; assay type: in vivo, mouse; conditions: male, mouse, oral, 10 mg/kg, oral vinorelbine 10 mg/kg
Protocol: as §1, §2, §3

[3] = Tissue concentrations of vinorelbine and deacetylvinorelbine 4 h after i.v. vinorelbine in CES2-modified mice; assay type: in vivo, mouse; conditions: male, mouse, intravenous, 10 mg/kg, i.v. vinorelbine 10 mg/kg
Protocol: as §1, §2, §3

[4] = Plasma pharmacokinetics of vinorelbine and deacetylvinorelbine after i.v. vinorelbine in CES2-modified mice; conditions: male, mouse, plasma, iv, 10 mg/kg, AUC0-4h, i.v. vinorelbine 10 mg/kg
Protocol: In order to minimize variation among individuals, mice were fasted for 3 h before drug was administered orally or intravenously. […] For the vinorelbine 4-h experiment, 6-7 male mice received vinorelbine intravenously (10 mg/kg, 5 μL/g) or orally (10 mg/kg, 10 μL/g) using a blunt-ended needle. […] Time points of termination were chosen to allow both reasonable assessment of the plasma exposure of the compound and its main metabolites, and adequate measurement of tissue concentrations. In order to minimize the generation and use of mice, and as no pronounced sex differences were expected, female mice were used for the capecitabine studies and male mice for the vinorelbine studies. Tail vein blood sample collection (~50 μL) was performed using microvettes containing dipotassium-EDTA. All blood samples were rapidly placed on ice to limit any ongoing hydrolysis. At the last time point in each experiment (2 or 4 h), mice were anesthetized with 5% isoflurane and blood was collected by cardiac puncture. Cardiac puncture blood samples (600–800 μL) were collected in Eppendorf tubes containing heparin as an anticoagulant. The mice were then sacrificed by cervical dislocation and brain, liver, kidney, lung, small intestine and testis were rapidly removed. Plasma was isolated from the blood by centrifugation at 9000 × g for 6 min at 4 °C, and the plasma fraction was collected and stored at −30 °C until analysis. Organs were homogenized with 4% (w/v) bovine serum albumin and stored at −30 °C until analysis. Relative metabolite-to-parental drug ratio after drug administration was calculated by determining metabolite tissue concentration relative to corresponding parental drug concentration at the last time point.
as §2
Pharmacokinetic parameters were calculated by non-compartmental methods using the PK solver software. The area under the plasma concentration-time curve (AUC) was calculated using the trapezoidal rule, without extrapolating to infinity. The peak plasma concentration (Cmax) and the time of maximum plasma concentration (Tmax) were estimated from the original (individual mouse) data. One-way analysis of variance (ANOVA) was used when multiple groups were compared and the Tukey’s test post hoc correction was used to accommodate multiple testing. The two-sided unpaired Student’s t-test was used when treatments or differences between two specific groups were compared. Kruskal-Wallis rank test was used for semi-quantitative assessment for (H&E)-staining of white adipose tissue and Oil Red O-staining of liver. All statistical analyses were performed using the software GraphPad Prism 8 (GraphPad Software Inc., La Jolla, CA, USA). All the linear data were log-transformed before statistical tests were applied. Differences were considered statistically significant when P < 0.05. All data are presented as mean ± SD.

[5] = set-up: method as in PMID 11822766; conditions: 24 patients; oral vinorelbine 80 mg/m^2; cited from earlier work
[6] = colon, male Ces2^–/– mice, read-out: Ccolon (colon concentration)
[7] = colon, male Ces2^–/–A mice, read-out: Ccolon (colon concentration)
[8] = colon, male Ces2^–/–V mice, read-out: Ccolon (colon concentration)
[9] = colon, male wild-type mice, read-out: Ccolon (colon concentration)
[10] = liver, male Ces2^–/– mice, read-out: Cliver (liver concentration)
[11] = liver, male Ces2^–/–A mice, read-out: Cliver (liver concentration)
[12] = liver, male Ces2^–/–V mice, read-out: Cliver (liver concentration)
[13] = liver, male wild-type mice, read-out: Cliver (liver concentration)
[14] = small intestine contents, male Ces2^–/– mice, read-out: CSIC (small intestine contents concentration)
[15] = small intestine contents, male Ces2^–/–A mice, read-out: CSIC (small intestine contents concentration)
[16] = small intestine contents, male Ces2^–/–V mice, read-out: CSIC (small intestine contents concentration)
[17] = small intestine contents, male wild-type mice, read-out: CSIC (small intestine contents concentration)
[18] = small intestine tissue, male Ces2^–/– mice, read-out: CSI (small intestine tissue concentration)
[19] = small intestine tissue, male Ces2^–/–A mice, read-out: CSI (small intestine tissue concentration)
[20] = small intestine tissue, male Ces2^–/–V mice, read-out: CSI (small intestine tissue concentration)
[21] = small intestine tissue, male wild-type mice, read-out: CSI (small intestine tissue concentration)

## CCC1=C[C@@H]2CN(C1)Cc1c([nH]c3ccccc13)[C@@](C(=O)OC)(c1cc3c(cc1OC)N(C)[C@H]1[C@@](O)(C(=O)OC)[C@H](OC(C)=O)[C@]4(CC)C=CCN5CC[C@]31[C@@H]54)C2 [Vinorelbine, reference compound]
[1]; male Ces2^–/– mice
  AUC(0-t): 491 ± 135 ng·h/mL
  Cmax: 188 ± 63 ng/mL
  Tmax: 1.9 ± 1.9 h
[1]; male Ces2^–/–A mice
  AUC(0-t): 730 ± 270 ng·h/mL
  Cmax: 333 ± 99 ng/mL
  Tmax: 1.3 ± 0.9 h
[1]; male Ces2^–/–V mice
  AUC(0-t): 585 ± 186 ng·h/mL
  Cmax: 243 ± 110 ng/mL
  Tmax: 2.4 ± 1.5 h
[1]; male wild-type mice
  AUC(0-t): 362 ± 81 ng·h/mL
  Cmax: 149 ± 59 ng/mL
  Tmax: 1.7 ± 0.7 h
[2]; [6]
  concentration at 4 h: 581 ± 175 ng/g
[2]; [7]
  concentration at 4 h: 788 ± 189 ng/g
[2]; [8]
  concentration at 4 h: 608 ± 203 ng/g
[2]; [9]
  concentration at 4 h: 348 ± 136 ng/g
[2]; [10]
  concentration at 4 h: 8470 ± 8150 ng/g
[2]; [11]
  concentration at 4 h: 8520 ± 3440 ng/g
[2]; [12]
  concentration at 4 h: 8300 ± 2000 ng/g
[2]; [13]
  concentration at 4 h: 1530 ± 409 ng/g
[2]; [14]
  concentration at 4 h: 159000 ± 46700 ng/g
[2]; [15]
  concentration at 4 h: 177000 ± 73000 ng/g
[2]; [16]
  concentration at 4 h: 114000 ± 19400 ng/g
[2]; [17]
  concentration at 4 h: 77000 ± 29300 ng/g
[2]; [18]
  concentration at 4 h: 18300 ± 4300 ng/g
[2]; [19]
  concentration at 4 h: 18100 ± 3650 ng/g
[2]; [20]
  concentration at 4 h: 15600 ± 6980 ng/g
[2]; [21]
  concentration at 4 h: 10800 ± 3700 ng/g
[3]; [6]
  concentration at 4 h: 5620 ± 3000 ng/g
[3]; [7]
  concentration at 4 h: 5780 ± 3090 ng/g
[3]; [8]
  concentration at 4 h: 6740 ± 1470 ng/g
[3]; [9]
  concentration at 4 h: 2360 ± 692 ng/g
[3]; [10]
  concentration at 4 h: 23400 ± 6110 ng/g
[3]; [11]
  concentration at 4 h: 24300 ± 3720 ng/g
[3]; [12]
  concentration at 4 h: 24700 ± 4450 ng/g
[3]; [13]
  concentration at 4 h: 12200 ± 4960 ng/g
[3]; [14]
  concentration at 4 h: 40100 ± 25500 ng/g
[3]; [15]
  concentration at 4 h: 47200 ± 30900 ng/g
[3]; [16]
  concentration at 4 h: 48400 ± 27000 ng/g
[3]; [17]
  concentration at 4 h: 27700 ± 13400 ng/g
[3]; [18]
  concentration at 4 h: 5920 ± 1350 ng/g
[3]; [19]
  concentration at 4 h: 5600 ± 644 ng/g
[3]; [20]
  concentration at 4 h: 7680 ± 2240 ng/g
[3]; [21]
  concentration at 4 h: 3470 ± 858 ng/g
[4]; male Ces2^–/– mice
  AUC(0-t): 6040 ± 1950 ng·h/mL
[4]; male Ces2^–/–A mice
  AUC(0-t): 5950 ± 3250 ng·h/mL
[4]; male Ces2^–/–V mice
  AUC(0-t): 9790 ± 5670 ng·h/mL
[4]; male wild-type mice
  AUC(0-t): 8140 ± 4780 ng·h/mL
[5]
  plasma Cmax: 133.4 ± 42.3 ng/mL
